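The compound was tested at five concentrations on cells cultured in 96-well plates, with a 48-hour exposure period. The concentration for full growth arrest is given as TGI.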
Columns and labels:
Experiment in all cases: NCI tumour cell line growth inhibition, 48 h
SF-268 CNS = system: SF-268 CNS
HCC-2998 colon = system: HCC-2998 colon
OVCAR-5 ovarian = system: OVCAR-5 ovarian
SK-MEL-5 melanoma = system: SK-MEL-5 melanoma
TK-10 renal = system: TK-10 renal
MALME-3M melanoma = system: MALME-3M melanoma
HCT-116 colon = system: HCT-116 colon
KM12 colon = system: KM12 colon
HT29 colon = system: HT29 colon
CAKI-1 renal = system: CAKI-1 renal
MDA-MB-231 breast = system: MDA-MB-231 breast

Structure (SMILES)	TGI (SF-268 CNS) [µM]	TGI (HCC-2998 colon) [µM]	TGI (OVCAR-5 ovarian) [µM]	TGI (SK-MEL-5 melanoma) [µM]	TGI (TK-10 renal) [µM]	TGI (MALME-3M melanoma) [µM]	TGI (HCT-116 colon) [µM]	TGI (KM12 colon) [µM]	TGI (HT29 colon) [µM]	TGI (CAKI-1 renal) [µM]	TGI (MDA-MB-231 breast) [µM]
COC(=O)CCc1cc(OC)c2oc(-c3ccc(OC)c(OC)c3)c(CO)c2c1	> 100	> 100	> 100	> 100	> 100	> 100	> 100	> 100	> 100	> 100	> 100
[O-][N+]1=C(c2ccccc2)/C(=C2/C(c3ccccc3)=[N+]([O-])c3ccccc32)Cc2ccccc21		29.5	> 100	35.4	49.2	40.8	31.4	33.9	35.9	47.4	33.5
O=C(Nc1ccccc1)c1cc2cc(CCl)ccc2oc1=O	> 100	> 100	> 100	> 100	> 100	> 100	> 100	> 100	> 100	> 100	> 100
COc1cccc2c1C(=O)c1c(O)c3c(c(O)c1C2=O)CC(O)(C(C)=O)CC3OC1OC(COC(C)=O)C(OC(C)=O)C(OC(C)=O)C1OC(C)=O (configuration not stated)	55.1		96.6	> 100	61.8	> 100	> 100	> 100	> 100		63.7
Clc1ccc2c(c1)CC1C[N+]3=C(CCCCC3)C1=C2 (configuration not stated)	> 100		> 100	> 100	> 100	> 100	> 100	> 100	> 100	> 100	> 100
CC(C)C1CCC(=O)CC1CCCCC1CC(=O)CC1O[Si](C)(C)C(C)(C)C (configuration not stated)	7.74	19.3	26.2	12.6	23.4	19.1	15.3	7.93	10.3	19.4	40.5
O=C(N/N=C\c1ccc(Cl)cc1)Nc1cccc2ccccc12	> 26.1	> 100	> 100	> 37.4	17	> 24.4	> 23.2	> 23	> 100	4.76	> 59.1
C[N+]1(C)C/C(=C\C=C\c2ccccc2)C(=O)/C(=C/C=C/c2ccccc2)C1	43.7	34.2	54.7	25.2	> 67.1	40.4	28.9	10.3	26.6	> 82.3	36.1
CCOC(=O)NC(C(F)(F)F)(C(F)(F)F)P(=O)(OCC)OCC	> 100	> 100	> 100		> 100	> 100	> 100	> 100	> 100		> 100
COc1cc(C2SCC(=O)N2c2ccc(Cl)cc2)cc(OC)c1OC (configuration not stated)	> 100	> 100		> 100	> 100	> 100	> 100	> 82.8	> 41	> 100	> 100
CC(=O)O[C@H]1C(=O)[C@@]2(C)[C@H]([C@H](OC(=O)c3ccccc3)[C@]3(O)C[C@H](OC(=O)[C@H](O)[C@@H](NC(=O)OC(C)(C)C)c4ccco4)C(C)=C1C3(C)C)[C@]1(OC(C)=O)CO[C@@H]1C[C@@H]2O	> 50	0.00901	9.96	19	29	> 47	17.5	> 50	0.24	> 50	14.7
CN(C)C1(N(C)C)Oc2c(c(=O)n(C)c(=O)n2C)C(c2ccc(F)cc2)C1(F)F (configuration not stated)	> 100	> 100	> 100	> 100	> 100		> 100	> 100		> 100	> 100
O=C1/C(=C/c2cccc([N+](=O)[O-])c2)Cc2ccccc21	> 100		> 100		> 100	> 100	> 100	> 100	> 100	> 100	> 100
O=C(/C=C/c1ccc(O)c(O)c1)c1ccc(O)cc1O	37.6	34.2	32.8	26.3	60.3	28.7	28	24.3	33.4	28.9	50.8
COc1ccc2nc3c([N+](=O)[O-])ccc4c3c(c2c1)N=CN4CCN(C)C	19.6	20.3	23.3	7.81	21.1	14.5	13.6	15.6	14.4	5.71	10.7
Nc1nc(N)c2c(-c3ccccc3)ccnc2n1	> 100	> 100	> 100	> 100	> 100	> 100	> 100		> 100	> 100	> 100
CCCCCCC(O)C(=O)OC1C2C(CC1(C)C)C(O)C13OC1C(O)C1(CO1)[C@@]23C (some centres not stated)	53.6		> 100	40.9	> 100	> 100	> 100	> 100		> 100	> 100
O=C(O)c1ccc(Nc2nc3ccc(C(F)(F)F)cc3nc2-c2ccccc2)cc1	> 100	40.3	> 100	> 100	52.4	> 100	> 100	> 10	> 10	> 100	
CC(c1ccccc1)n1c2ccccc2c2c(N)ncnc21 (configuration not stated)	43.5	34.5	37.9	33.9	34.9	36	38.5		31.6	62.2	34.9
Cc1cc2nc3c(C#N)c4c(c(Cl)n3c2cc1C)CCC4	53.3		77.8	50.1	70.6	> 100	29.6	> 100		35.9	35.1
O=C1CS(=O)c2ccccc2N1 (configuration not stated)	> 100	> 100	> 100	> 100	> 100	> 100	> 100	> 100	> 100	> 100	

Reference: PubChem BioAssay (NCI)
